Measurements reported in ChEMBL document CHEMBL4732247, “Discovery of A031 as effective proteolysis targeting chimera (PROTAC) androgen receptor (AR) degrader for the treatment of prostate cancer” (Eur J Med Chem, 2021).

Legend:
VCaP [1] = assay: Cytotoxicity against human VCaP cells assessed as growth inhibition at 0.125 uM after 4 days by CCK8 assay relative to control; type: functional; details: 96 h, time 4 day, read-out: GI
VCaP [2] = assay: Cytotoxicity against human VCaP cells assessed as growth inhibition at 0.25 uM after 4 days by CCK8 assay relative to control; type: functional; details: 96 h, time 4 day, read-out: GI
VCaP [3] = assay: Cytotoxicity against human VCaP cells assessed as growth inhibition at 0.5 uM after 4 days by CCK8 assay relative to control; type: functional; details: 96 h, time 4 day, read-out: GI
VCaP [4] = assay: Cytotoxicity against human VCaP cells assessed as growth inhibition at 1 uM after 4 days by CCK8 assay relative to control; type: functional; details: 96 h, time 4 day, read-out: GI
VCaP [5] = assay: Cytotoxicity against human VCaP cells assessed as growth inhibition at 0.8 uM after 4 days by CCK8 assay relative to control; type: functional; details: 96 h, time 4 day, read-out: GI
VCaP [6] = assay: Cytotoxicity against human VCaP cells assessed as growth inhibition at 4 uM after 4 days by CCK8 assay relative to control; type: functional; details: 96 h, time 4 day, read-out: GI
VCaP [7] = assay: Cytotoxicity against human VCaP cells assessed as growth inhibition after 4 days by CCK8 assay; type: functional, cell-based; details: dose 0.032-4 µM, time 4.0 day

Cc1ncsc1-c1ccc([C@H](C)NC(=O)[C@@H]2C[C@@H](O)CN2C(=O)[C@@H](NC(=O)COCCN2CCN(c3cnc(C(=O)N4[C@@H]5CC[C@H]4C[C@@H](Oc4ccc(C#N)c(Cl)c4)C5)cn3)CC2)C(C)(C)C)cc1 showed an inhibition of growth at 0.125 µM (VCaP [1]) of 42.4%, an inhibition of growth at 0.25 µM (VCaP [2]) of 52% and an inhibition of growth at 0.5 µM (VCaP [3]) of 61.5%. The inhibition of growth at 1 µM (VCaP [4]) was 72.3%.

In the case of Cc1ncsc1-c1ccc([C@H](C)NC(=O)[C@@H]2C[C@@H](O)CN2C(=O)[C@@H](NC(=O)COCCN2CCN(c3ccc(C(=O)N4[C@@H]5CC[C@H]4C[C@@H](Oc4ccc(C#N)c(Cl)c4)C5)cn3)CC2)C(C)(C)C)cc1, the inhibition of growth at 0.125 µM (VCaP [1]) is reported as 28.4%, the inhibition of growth at 0.25 µM (VCaP [2]) is reported as 7.23% and the inhibition of growth at 0.5 µM (VCaP [3]) is reported as 63.6%. For the same compound, the inhibition of growth at 1 µM (VCaP [4]) was 72.5%.

Compound C[C@@]12C[C@H](NC(=O)c3ccc(N4CCN(CCCCCCCNc5ccc6c(c5)C(=O)N(C5CCC(=O)NC5=O)C6=O)CC4)cc3)C[C@]1(C)C[C@@H](Oc1ccc(C#N)c(Cl)c1)C2 (stereo not given in full) has an inhibition of growth at 0.125 µM (VCaP [1]) of 7.46%, an inhibition of growth at 0.25 µM (VCaP [2]) of 14% and an inhibition of growth at 0.5 µM (VCaP [3]) of 14.3%. The inhibition of growth at 1 µM (VCaP [4]) was 14.8%.

In the case of Cc1ncsc1-c1ccc([C@H](CC(=O)NCCCCCCCCN2CCN(c3ccc(C(=O)N4[C@@H]5CC[C@H]4C[C@@H](Oc4ccc(C#N)c(Cl)c4)C5)cc3)CC2)NC(=O)[C@H]2C[C@H](O)CN2C(=O)[C@H](NC(=O)C2(F)CC2)C(C)(C)C)cc1, the inhibition of growth at 0.25 µM (VCaP [2]) is reported as 11.3%, the inhibition of growth at 0.5 µM (VCaP [3]) is reported as 24.1% and the inhibition of growth at 1 µM (VCaP [4]) is reported as 44.7%.

N#Cc1ccc(O[C@H]2C[C@H]3CC[C@@H](C2)N3C(=O)c2ccc(N3CCN(CCCCCCCCCOc4cccc5c4C(=O)N(C4CCC(=O)NC4=O)C5=O)CC3)cc2)cc1Cl (stereo not given in full) was tested, and the inhibition of growth at 0.8 µM (VCaP [5]) was 21.9%, the inhibition of growth at 4 µM (VCaP [6]) was 30.6% and the “growth inhibition (GI)” value (VCaP [7]) was “Dose-dependent effect”.

In the case of C[C@@]12C[C@H](NC(=O)c3ccc(N4CCN(CCCCCNc5ccc6c(c5)C(=O)N(C5CCC(=O)NC5=O)C6=O)CC4)cc3)C[C@]1(C)C[C@@H](Oc1ccc(C#N)c(Cl)c1)C2 (stereo not given in full), the inhibition of growth at 0.125 µM (VCaP [1]) is reported as 24.1%, the inhibition of growth at 0.25 µM (VCaP [2]) is reported as 30.3% and the inhibition of growth at 0.5 µM (VCaP [3]) is reported as 38.1%. The inhibition of growth at 1 µM (VCaP [4]) was 44.5%.

In the case of Cc1ncsc1-c1ccc([C@H](CC(=O)NCCCCCCCN2CCN(c3ccc(C(=O)N4[C@@H]5CC[C@H]4C[C@@H](Oc4ccc(C#N)c(Cl)c4)C5)cc3)CC2)NC(=O)[C@H]2C[C@H](O)CN2C(=O)[C@H](NC(=O)C2(F)CC2)C(C)(C)C)cc1, the inhibition of growth at 0.25 µM (VCaP [2]) is reported as 2.18%, the inhibition of growth at 0.5 µM (VCaP [3]) is reported as 14.5% and the inhibition of growth at 1 µM (VCaP [4]) is reported as 29.8%.

N#Cc1ccc(O[C@H]2C[C@H]3CC[C@@H](C2)N3C(=O)c2cnc(N3CCN(CCCCCCNc4ccc5c(c4)C(=O)N(C4CCC(=O)NC4=O)C5=O)CC3)nc2)cc1Cl (stereo not given in full) gave an inhibition of growth at 0.125 µM (VCaP [1]) of 31.7%, an inhibition of growth at 0.25 µM (VCaP [2]) of 36.3% and an inhibition of growth at 0.5 µM (VCaP [3]) of 37.8%. It also gave an inhibition of growth at 1 µM (VCaP [4]) of 38.9%.

In the case of N#Cc1ccc(O[C@H]2C[C@H]3CC[C@@H](C2)N3C(=O)c2cnc(N3CCN(CCCCNc4cccc5c4C(=O)N(C4CCC(=O)NC4=O)C5=O)CC3)nc2)cc1Cl (stereo not given in full), the inhibition of growth at 0.125 µM (VCaP [1]) is reported as 19%, the inhibition of growth at 0.25 µM (VCaP [2]) is reported as 29% and the inhibition of growth at 0.5 µM (VCaP [3]) is reported as 44.4%. For the same compound, the inhibition of growth at 1 µM (VCaP [4]) was 50.4% and the “growth inhibition (GI)” value (VCaP [7]) was “Dose-dependent effect”.

Compound Cc1ncsc1-c1ccc([C@H](C)NC(=O)[C@@H]2C[C@@H](O)CN2C(=O)[C@@H](NC(=O)COCCN2CCN(c3ccc(C(=O)N4[C@@H]5CC[C@H]4C[C@@H](Oc4ccc(C#N)c(Cl)c4)C5)nc3)CC2)C(C)(C)C)cc1 has an inhibition of growth at 0.125 µM (VCaP [1]) of 18.8%, an inhibition of growth at 0.25 µM (VCaP [2]) of 25.6% and an inhibition of growth at 0.5 µM (VCaP [3]) of 33.9%. The inhibition of growth at 1 µM (VCaP [4]) was 43.2%.

Work on CN1CCC(N2CCC(C#Cc3ccc(C(=O)N4[C@@H]5CC[C@H]4C[C@@H](Oc4ccc(C#N)c(Cl)c4)C5)cc3)CC2)CC1 yielded an inhibition of growth at 0.125 µM (VCaP [1]) of 14.9%, an inhibition of growth at 0.25 µM (VCaP [2]) of 23.3% and an inhibition of growth at 0.5 µM (VCaP [3]) of 30.1%. For the same compound, the inhibition of growth at 1 µM (VCaP [4]) was 34%.

For Cc1ncsc1-c1ccc([C@H](C)NC(=O)[C@@H]2C[C@@H](O)CN2C(=O)[C@@H](NC(=O)COCCN2CCN(c3ccc(C(=O)N4[C@@H]5CC[C@H]4C[C@@H](Oc4ccc(C#N)c(Cl)c4)C5)cc3)CC2)C(C)(C)C)cc1, the inhibition of growth at 0.125 µM (VCaP [1]) was 45%, the inhibition of growth at 0.25 µM (VCaP [2]) was 61.8% and the inhibition of growth at 0.5 µM (VCaP [3]) was 70.6%. The inhibition of growth at 1 µM (VCaP [4]) was 76.2%.

N#Cc1ccc(O[C@H]2C[C@H]3CC[C@@H](C2)N3C(=O)c2cnc(N3CCN(CCCCCNc4cccc5c4C(=O)N(C4CCC(=O)NC4=O)C5=O)CC3)nc2)cc1Cl (stereo not given in full) showed an inhibition of growth at 0.125 µM (VCaP [1]) of 20%, an inhibition of growth at 0.25 µM (VCaP [2]) of 24.6% and an inhibition of growth at 0.5 µM (VCaP [3]) of 30.1%. The inhibition of growth at 1 µM (VCaP [4]) was 36.9% and the “growth inhibition (GI)” value (VCaP [7]) was “Dose-dependent effect”.

Work on Cc1ncsc1-c1ccc([C@H](CC(=O)NCCCCCCCCCN2CCN(c3ccc(C(=O)N4[C@@H]5CC[C@H]4C[C@@H](Oc4ccc(C#N)c(Cl)c4)C5)cc3)CC2)NC(=O)[C@H]2C[C@H](O)CN2C(=O)[C@H](NC(=O)C2(F)CC2)C(C)(C)C)cc1 yielded an inhibition of growth at 0.125 µM (VCaP [1]) of 5.34%, an inhibition of growth at 0.25 µM (VCaP [2]) of 15.9% and an inhibition of growth at 0.5 µM (VCaP [3]) of 29%. It also gave an inhibition of growth at 1 µM (VCaP [4]) of 55.2%.
